The record followed here is US4839350A, “Cephalosporin compounds and the production thereof” (Meiji Seika Kaisha, Ltd., priority 1984, dated 1989).

Data set [1] can be described thus: Recovery in urine after oral administration to mice (paper-disc assay). In kind it is in vivo, mice of ICR-strain (male). Particulars: 0.5 mg per mouse, suspension in 0.2% CMC, urine to 4 hours, molar % as free carboxylic acid form, average of three mice, E. coli K-12 8236 bioassay, read-out: Rate of recovery of the test compound in urine. An excerpt:
The new cephalosporin compound of this invention as orally administered is easily absorbed through the intestines by a living animal and maintains its antibacterial activity to a substantial extent in the body of the animal until it is excreted in the urine of the animal, and this may be observed by determining the remaining amount of the cephalosporin compound of this invention which can be recovered in the urine without receiving a substantial degradation of the compound in vivo. Some tests were made to evaluate the amount of the cephalosporin compound of this invention which can be recovered as the antibacterially active compound from the urine after it was orally given to mice.
To mice of ICR-strain (male, 4-weeks-aged, three in each group) was orally administered the compound under test identified below, at a dosage of the compound of 0.5 mg per mouse. The compound under test was given as a suspension of the test compound in a solution of 0.2% carboxymethylcellulose (CMC) in water. By the end of 4 hours after the administration of the test compound, all the amounts of the urine excreted by the treated mice were collected together, and the total quantity of the cephalosporin compound of this invention (as the free carboxylic acid form) in the urine was determined according to a paper-disc assay method using Escherichia coli K-12 8236 as the assaying strain. […]

Data set [2] has as its system Staphylococcus aureus 209P JC-1. Briefly: MIC by agar-dilution method, Staphylococcus aureus 209P JC-1. In kind it is cell-based. The settings on record: read-out: MIC. An excerpt:
(§1) The compounds of this invention are all novel compounds.

Another data set has as its system Proteus mirabilis GN 79. Nature of the data set: MIC by agar-dilution method, Proteus mirabilis GN 79. In kind it is cell-based. Particulars: GN79, read-out: MIC.
From the text: as §1

For data set [3], the system named is Serratia marcescens No. 1. Briefly: MIC by agar-dilution method, Serratia marcescens No. 1. In kind it is cell-based. The settings on record: read-out: MIC.
From the text: as §1

Data set [4] concerns Pseudomonas aeruginosa MB 3833. Briefly: MIC by agar-dilution method, Pseudomonas aeruginosa MB 3833. In kind it is cell-based. Particulars: MB3833, read-out: MIC.
From the text: as §1

The subject of another data set is Proteus vulgaris GN 76. Nature of the data set: MIC by agar-dilution method, Proteus vulgaris GN 76. In kind it is cell-based. Particulars: GN76, read-out: MIC.
From the text: as §1

The test system of data set [5] is Klebsiella pneumoniae PCI 602. Nature of the data set: MIC by agar-dilution method, Klebsiella pneumoniae PCI 602. The settings on record: PCI602, read-out: MIC. In kind it is cell-based.
From the text: as §1

The test system of data set [6] is Salmonella typhimurium LT-2. Briefly: MIC by agar-dilution method, Salmonella typhimurium LT-2. In kind it is cell-based. Particulars: Salmonella enterica, read-out: MIC.
From the text: as §1

In another data set the test system is Proteus rettgeri GN 624. Briefly: MIC by agar-dilution method, Proteus rettgeri GN 624. In kind it is cell-based. Particulars: Providencia rettgeri, GN624, read-out: MIC.
From the text: as §1

The test system of data set [7] is Staphylococcus aureus Smith. Briefly: MIC by agar-dilution method, Staphylococcus aureus Smith. In kind it is cell-based. Particulars: read-out: MIC.
From the text: as §1

Data set [8] deals with Escherichia coli NIHJ JC-2. Nature of the data set: MIC by agar-dilution method, Escherichia coli NIHJ JC-2. The settings on record: NIHJJC2, read-out: MIC. In kind it is cell-based.
From the text: as §1

Counter-ions that a name gives are not always drawn.

Consider `CO/N=C(\C(=O)NC1C(=O)N2C(C(=O)OCOC(=O)C(C)(C)C)=C(/C=C\c3scnc3Cl)CSC12)c1csc(N)n1` (stereo not drawn) [Example 22, 7-[2-methoxyimino-2-(2-aminothiazol-4-yl)acetamido]-3-[2-(4-chlorothiazol-5-yl)vinyl]-3-cephem-4-carboxylic acid (syn-isomer, cis-isomer) pivaloyloxymethyl ester], for which the dose excreted at 4 h in data set [1] stood at 24%.
On to `CO/N=C(\C(=O)NC1C(=O)N2C(C(=O)O)=C(/C=C\c3sc(Cl)nc3Cl)CSC12)c1csc(N)n1` (stereo not drawn) [Example 34, 7-[2-methoxyimino-2-(2-aminothiazol-4-yl)acetamido]-3-[2-(2,4-dichlorothiazol-5-yl)vinyl]-3-cephem-4-carboxylic acid sodium salt (syn-isomer, cis-isomer)], for which the minimal inhibitory concentration (MIC) was determined as 0.2 µg/mL in data set [2]; 0.78 µg/mL in the data set on Proteus mirabilis GN 79; 1.56 µg/mL in data set [3]; 100 µg/mL in data set [4]; 1.56 µg/mL in the data set with Proteus vulgaris GN 76; 3.13 µg/mL in [5]. For the same compound, the minimum inhibitory concentration (MIC) amounted to 3.13 µg/mL in data set [6], 1.56 µg/mL in the data set with Proteus rettgeri GN 624, 0.2 µg/mL in [7] and 3.13 µg/mL in data set [8].
For `CO/N=C(\C(=O)NC1C(=O)N2C(C(=O)OCOC(=O)C(C)(C)C)=C(/C=C\c3cncs3)CSC12)c1csc(N)n1` (stereo not drawn) [Example 38, 7-[2-methoxyimino-2-(2-aminothiazol-4-yl)acetamido]-3-[2-(thiazol-5-yl)vinyl]-3-cephem-4-carboxylic acid (syn-isomer, cis-isomer) pivaloyloxymethyl ester], the dose excreted at 4 h in [1] came to 20%.
